The values below come from patent publication US8679478B2, “Methods of lysosomal storage disease therapy” (Duke University, priority 2010, dated 2014).

Common to all, as to assay type: in vivo, mouse
The test system of experiment [1] is immune tolerant GAA-KO mice. Briefly: Glycogen content in tissues, ERT plus β2 agonist (Example 6). Here is the method:
Male GAA-KO mice were administered four weekly doses of 20 mg/kg body weight of rhGAA and sacrificed one week following the last injection. Groups of mice were treated with clenbuterol (n=6), albuterol (n=4) or untreated (n=6). Mice were euthanized for tissue analysis 5 weeks after initiation of ERT.
Cerebral and cerebellar hemispheres were analyzed 5 weeks following the initiation of ERT. Groups of mice were treated with clenbuterol (n=6), albuterol (n=4) or untreated (n=6).
Two β2 agonists were evaluated in combination with ERT, clenbuterol and albuterol. […] Groups of 3 month-old immune tolerant GAA-KO mice (Raben et al., Human Mol. Genet., 2001, 10:2039-2047) were treated with four weekly doses of rhGAA (20 mg/kg body weight), with or without concurrent β2 agonist treatment.
(§1) Mice were sacrificed 7 days after the last injection. Selected tissues were collected for GAA enzyme activity and glycogen content analyses. All animal procedures were done in accordance with Duke University Institutional Animal Care and Use Committee-approved guidelines. GAA activity and glycogen content analyses, Rotarod testing, and Western blot detection of CI-MPR was performed essentially as described (Koeberl et al., Mol. Genet. Metab., 2011, 103:107-112. Wire hang testing was performed with a 0.5 cm mesh hardware cloth fixed to an 8 by 10 inch frame. Mice were placed on the wire mesh, which was slowly inverted 6 inches over a cage containing paper bedding. The latency, or time until the mouse fell into the cage, was recorded.

Experiment [2] relates to GAA-KO mice. Briefly: Glycogen content in muscles, ERT plus clenbuterol or albuterol. The note with it: for glycogen content for quadriceps: p<0.001; for Glycogen content: ERT plus clenbuterol v. ERT alone. Here is the method: FIG. 8A-8C depicts increased GAA uptake and increased glycogen clearance in GAA-KO mice following clenbuterol treatment and ERT. […] GAA-KO mice were administered four weekly doses of rhGAA (20 mg/kg), and treated with clenbuterol (n=6) or untreated (n=5). […] Mean+/−standard deviation are shown. Statistically significant differences indicated (*=p<0.05; **=p<0.01).
GAA-KO mice were treated with weekly rhGAA (20 mg/kg): with medium clenbuterol, […] (n=6), with low clenbuterol, 1.3 mg/ml (n=6), with albuterol 30 mg/ml (n=4), or without drug treatment (n=3). Drugs were administered in the drinking water. Mean+/−s.d. shown. Statistically significant differences indicated (*=p<0.05; **=p<0.01).
(§2) For in vivo analysis of AAV vectors, stocks were administered intravenously (via the retroorbital sinus) in 3 month-old and 15 month-old GAA-KO mice, and to 3 month-old tolerant GAA-KO and DKO mice. Clenbuterol (30 μg/ml) was administered to groups of 3 month-old vector-injected and mock-injected male GAA-KO mice in drinking water for 28 days. At the indicated time points post-injection, tissue samples were obtained and processed as described below. All animal procedures were done in accordance with Duke University Institutional Animal Care and Use Committee-approved guidelines. GAA activity and glycogen content were analyzed essentially as described (Sun et al., Mol. Ther., 2005, 11:889-898; Sun et al., Mol. Ther., 2005, 11: 57-65). Rotarod testing was performed essentially as described (Sun, B. D. et al. 2005). Western blotting of hGAA was performed essentially as described (Amalfitano et al., Proc. Natl. Acad. Sci. USA, 1999, 96: 8861-8866) using the hGAA monoclonal antibody (courtesy of Genzyme Corp., Framingham, Mass.) and the CI-MPR antibody (catalog number GTX28093; Gene Tex, Irvine, Calif.).
The efficacy from gene therapy was increased by β2 agonist stimulation from clenbuterol treatment, and this benefit might be expected to affect ERT in Pompe disease, as well. Therefore, groups of 3 month-old GAA-KO mice were treated with four weekly doses of rhGAA (20 mg/kg), with or without concurrent clenbuterol treatment.

The subject of experiment [3] is GAA-KO mice. Briefly: Rotarod testing, liver-targeted gene therapy plus clenbuterol. The protocol: (§3) FIG. 4A-4B depicts enhanced Rotarod performance and weight gain following liver-targeted gene therapy plus clenbuterol treatment. The GAA-KO mice (5 per group) were injected with AAV-LSPhGAA (2×10^10 vector particles/mouse). Vector treated mice were treated with clenbuterol or untreated. Non-vector treated GAA-KO mice were treated with clenbuterol or untreated to serve as controls. Mice were euthanized for tissue analysis 4 weeks after vector injection. […] Mean+/−standard deviation are shown. Statistically significant differences indicated (*=p<0.05; **=p<0.01).
as §2, with “Western blotting of hGAA was performed essentially as described (Amalfitano et al., Proc. Natl. Acad. Sci. USA, 1999, 96: 8861-8866) using the hGAA monoclonal antibody (courtesy of Genzyme Corp., Framingham, Mass.) and the CI-MPR antibody (catalog number GTX28093; Gene Tex, Irvine, Calif.).” left out

In experiment [4] the test system is immune tolerant GAA-KO mice. Briefly: Rotarod testing, ERT plus β2 agonist (Example 6). The note with it: after 4 weeks of treatment; clenbuterol 6 mg/l drinking water plus ERT v. ERT alone. Here is the method:
GAA-KO mice were administered four weekly doses of rhGAA (20 mg/kg), and treated with medium dose clenbuterol (n=7), albuterol (n=4) or untreated (n=6 or 3). […] Mean+/−standard deviation are shown. P values indicate statistically significant differences (lines).
Two β2 agonists were evaluated in combination with ERT, clenbuterol and albuterol. The dose of clenbuterol was reduced 5-fold from the concentration used in Example 4, to 6 mg/l in drinking water, while albuterol was evaluated at the higher dose (30 mg/l in drinking water). Groups of 3 month-old immune tolerant GAA-KO mice (Raben et al., Human Mol. Genet., 2001, 10:2039-2047) were treated with four weekly doses of rhGAA (20 mg/kg body weight), with or without concurrent β2 agonist treatment.
as §1, with “All animal procedures were done in accordance with Duke University Institutional Animal Care and Use Committee-approved guidelines.” left out
(Falling from the rotarod earlier than controls is read as motor impairment.)

Experiment [5] relates to GAA-KO mice. The experiment can be described thus: Weight gain, liver-targeted gene therapy plus clenbuterol. The following applies: vector plus clenbuterol v. mock treatment; p=0.06. Here is the method: as §3
as §2, with “Western blotting of hGAA was performed essentially as described (Amalfitano et al., Proc. Natl. Acad. Sci. USA, 1999, 96: 8861-8866) using the hGAA monoclonal antibody (courtesy of Genzyme Corp., Framingham, Mass.) and the CI-MPR antibody (catalog number GTX28093; Gene Tex, Irvine, Calif.).” left out

As for `CC(C)(C)NCC(O)c1cc(Cl)c(N)c(Cl)c1` (stereo not drawn) [clenbuterol], the Glycogen content result in experiment [1] (all striated muscles with the exception of tibialis anterior, clenbuterol plus ERT v. ERT alone) is listed as “reduced significantly”; in experiment [1] (cerebellum, β2 agonist plus ERT v. ERT alone), “reduced significantly”; in the experiment on GAA-KO mice [2] (diaphragm, p=0.0002) it was “significantly reduced”; in the experiment on GAA-KO mice [2] (quadriceps, p=0.00002) it was “significantly reduced”; in the experiment with GAA-KO mice [2] (tibialis anterior, p=0.002) it was “significantly reduced”. Also, the “glycogen content for quadriceps” value with GAA-KO mice [2] (ERT plus clenbuterol 1.3 μg/ml (Low) in drinking water) and with GAA-KO mice [2] (ERT plus clenbuterol 6 μg/ml (Medium) in drinking water) was “significantly reduced” throughout. Moreover, the glycogen clearance entry in the experiment on GAA-KO mice [2] (gastrocnemius, ERT plus clenbuterol) was “absence of increased glycogen clearance”. Also, the Rotarod latency increase in the experiment with GAA-KO mice [3] (clenbuterol alone v. mock treatment, p=0.02) turned out to be 26%; in the experiment on GAA-KO mice [3] (vector plus clenbuterol (30 μg/ml drinking water) v. vector alone, 4 weeks, p<2×10^−5), 75%. Further, the Rotarod latency entry in experiment [4] is “significantly increased”. The weight gain entry with GAA-KO mice [5] is “trend toward greater weight gain”.
